For orientation: GI50 means the concentration that inhibits growth by half. High values mean less potent growth inhibition, low ones more potent growth inhibition. As a reminder, the TGI is the concentration giving total growth inhibition. Low readings indicate more potent growth arrest, high ones less potent growth arrest. In general, LC50 refers to the concentration that kills 50% of the test population.

In one assay the test system is HOP-62. Nature of the assay: Cytotoxicity against human HOP62 cells. The format is functional.
The test system of another assay is OVCAR-3. Briefly: Cytotoxicity against human OVCAR-3 cells. The format is functional.
For a further assay, the system named is DMS-114. Nature of the assay: Cytotoxicity against human DMS114 cells. Format: functional. Particulars: for CC50: read-out: LC50 (the source's name).
In another assay the test system is SF-539. Nature of the assay: Cytotoxicity against human SF539 cells. Format: functional.
Another assay concerns NCI-H460. Briefly: Cytotoxicity against human NCI-H460 cells. Format: functional.
For assay [1], the species on record is Bos taurus. Nature of the assay: Induction of bovine brain tubulin assembly at 1 mg/ml of tubulin concentration.
A further assay concerns SNB-75. Briefly: Cytotoxicity against human SNB75 cells. The format is functional. As to conditions: for CC50: read-out: LC50 (the source's name).
The next assay has as its system COLO 205. Briefly: Cytotoxicity against human COLO205 cells. Particulars: for CC50: read-out: LC50 (the source's name). Format: functional.
The species named for assay [2] is Bos taurus. Nature of the assay: Induction of bovine brain tubulin assembly at 1.5 mg/ml of tubulin concentration.
The species named for assay [3] is Bos taurus. Briefly: Ratio of compound ED50 to taxol ED50 for bovine brain tubulin assembly at 1 mg/ml of tubulin concentration.
The species entered for assay [4] is Bos taurus. Briefly: Ratio of compound ED50 to taxol ED50 for bovine brain tubulin assembly at 1.5 mg/ml of tubulin concentration.

On to `CC(=O)O[C@H]1C(=O)[C@@]2(C)[C@H]([C@H](OC(=O)c3ccccc3)[C@]3(O)C[C@H](OC(=O)[C@H](O)[C@@H](NC(=O)c4ccccc4)c4ccccc4)C(C)=C1C3(C)C)[C@]1(OC(C)=O)CO[C@@H]1C[C@@H]2O` [PACLITAXEL], for which the GI50 came to 67.1 nM in the assay with HOP-62; 19.7 nM in the assay on OVCAR-3; 12.3 nM in the assay on DMS-114; 3.66 nM in the assay with SF-539; 21.9 nM in the assay on NCI-H460; 8.08 nM in the assay on SNB-75. This compound also registered a GI50 in the assay with COLO 205 of 1.76 nM. The TGI was above 1000 nM in the assay on HOP-62; 48.7 nM in the assay on OVCAR-3; 61.2 nM with DMS-114; 89.9 nM in the assay on SF-539; above 1000 nM with NCI-H460; 77.3 nM in the assay with SNB-75. Moreover, net growth in the assay on COLO 205 stopped (TGI) at 43.2 nM. Also, the CC50 with DMS-114 is above 1000 nM; with SF-539 (read-out: LC50 (the source's name)) it was above 25000 nM; in the assay with SNB-75, above 1000 nM; in the assay with COLO 205 it was 145 nM. For the same compound, the ED50 was determined as 950 nM in the assay listed under Bos taurus [1] and 760 nM in the assay filed under Bos taurus [2].
`CCCCCC(=O)N(C)[C@@H](c1ccccc1)[C@@H](O)C(=O)O[C@H]1C[C@@]2(O)[C@@H](OC(=O)c3ccccc3)[C@@H]3[C@]4(OC(C)=O)CO[C@@H]4C[C@H](O)[C@@]3(C)C(=O)[C@H](OC(C)=O)C(=C1C)C2(C)C`: in the assay listed under Bos taurus [3], the Ratio ED50 is 1.66. Further, the ED50 in the assay filed under Bos taurus [1] was determined as 1910 nM.
Regarding `CCCCCC(=O)N[C@@H](c1ccccc1)[C@@H](O)C(=O)O[C@H]1C[C@@]2(O)[C@@H](OC(=O)c3ccccc3)[C@@H]3[C@]4(OC(C)=O)CO[C@@H]4C[C@H](O)[C@@]3(C)C(=O)[C@H](O)C(=C1C)C2(C)C`, the Ratio ED50 in the assay listed under Bos taurus [3] worked out at 2.57. Besides, in the assay listed under Bos taurus [1], the ED50 came out at 2960 nM.
Regarding `CCCC(=O)N[C@@H](c1ccccc1)[C@@H](O)C(=O)O[C@H]1C[C@@]2(O)[C@@H](OC(=O)c3ccccc3)[C@@H]3[C@]4(OC(C)=O)CO[C@@H]4C[C@H](O)[C@@]3(C)C(=O)[C@H](OC(C)=O)C(=C1C)C2(C)C`, in the assay listed under Bos taurus [3], the Ratio ED50 amounted to 2.04. Moreover, in the assay filed under Bos taurus [1], the ED50 worked out at 2350 nM.
Turning to `C/C=C(\C)C(=O)N[C@@H](c1ccccc1)[C@@H](O)C(=O)O[C@H]1C[C@@]2(O)[C@@H](OC(=O)c3ccccc3)[C@@H]3[C@]4(OC(C)=O)CO[C@@H]4C[C@H](O)[C@@]3(C)C(=O)[C@H](OC(C)=O)C(=C1C)C2(C)C`, the Ratio ED50 in the assay filed under Bos taurus [3] is 1.05; in the assay listed under Bos taurus [4], 1.11. Also, the figures for the ED50 in the assay filed under Bos taurus [1] and in the assay listed under Bos taurus [2] were 850 nM and 950 nM, respectively.
As for `CCCCCC(=O)N[C@@H](c1ccccc1)[C@@H](O)C(=O)O[C@H]1C[C@@]2(O)[C@@H](OC(=O)c3ccccc3)[C@@H]3[C@]4(OC(C)=O)CO[C@@H]4C[C@H](O)[C@@]3(C)C(=O)[C@H](OC(C)=O)C(=C1C)C2(C)C` [TAXOL C], the GI50 in the assay on HOP-62, in the assay with OVCAR-3, in the assay with DMS-114, with SF-539, with NCI-H460 and in the assay with SNB-75 was below 10 nM each time. This compound returned a GI50 in the assay on COLO 205 below 10 nM. In the assay on HOP-62, the LC50 (concentration killing 50% of cells) was found to be 32000 nM. Also, the concentration for total growth inhibition (TGI) in the assay with HOP-62 is 12.1 nM; in the assay on OVCAR-3 it was below 10 nM; in the assay on DMS-114, 23.8 nM; with SF-539, below 10 nM; with NCI-H460, 349 nM; in the assay with SNB-75, 19.2 nM. This compound yielded a TGI with COLO 205 of 22.9 nM. Moreover, the LC50 is above 100000 nM with OVCAR-3 and 69800 nM in the assay with NCI-H460. The CC50 in the assay with DMS-114 is 21700 nM; with SNB-75 it was above 100000 nM; with COLO 205, 23300 nM. For the same compound, the Ratio ED50 in the assay filed under Bos taurus [3] amounted to 1.05; in the assay listed under Bos taurus [4], 1.82. Besides, the results for the ED50 in the assay listed under Bos taurus [1] and in the assay filed under Bos taurus [2] were 1000 nM and 1400 nM, respectively.

The values above are taken from ChEMBL document CHEMBL1149031, “New bioactive taxoids from cell cultures of Taxus baccata” (1994).
